Reference: patent US20040044037A1, “Amidino-urea serotonin receptor ligands and compositions, their pharmaceutical uses, and methods for their snythesis” (priority 2003, published 2004)
Where two headings read alike, the source gives them in different places.

Legend:
[1] = target: T1, human D2S dopamine (hD2S-DA) receptors (Homo sapiens, UniProt P14416); experiment: Competition radioligand binding, hD2S dopamine
T1 construct: purchased Receptor Biology, Inc. (Beltsville, Md.); host or cells: A9 L cells

[2] = target: T2, human 5-HT6 (h5-HT6) receptors (Homo sapiens, UniProt P50406); experiment: Competition radioligand binding, h5-HT6
T2 construct: purchased Receptor Biology, Inc. (Beltsville, Md.); host or cells: HEK-293 cells

human 5-HT1a receptors = target: T3, human 5-HT1a receptors (Homo sapiens, UniProt P08908); experiment: Competition radioligand binding, h5-HT1a
T3 construct: expressed in transfected cells; host or cells: CHO K1 cells
T3 sequence (P08908 1-422): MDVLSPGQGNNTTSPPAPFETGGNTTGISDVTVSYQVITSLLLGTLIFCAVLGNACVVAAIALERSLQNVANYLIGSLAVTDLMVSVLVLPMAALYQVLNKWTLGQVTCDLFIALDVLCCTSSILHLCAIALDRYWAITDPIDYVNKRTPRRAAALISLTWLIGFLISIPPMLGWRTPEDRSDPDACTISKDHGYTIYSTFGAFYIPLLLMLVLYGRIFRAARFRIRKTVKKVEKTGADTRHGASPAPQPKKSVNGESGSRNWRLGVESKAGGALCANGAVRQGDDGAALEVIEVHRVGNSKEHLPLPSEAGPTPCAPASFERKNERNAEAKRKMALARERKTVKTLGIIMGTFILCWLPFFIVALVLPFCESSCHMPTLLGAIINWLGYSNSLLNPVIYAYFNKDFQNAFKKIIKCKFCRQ
Procedure: (§1) Cells and Membrane Preparation: HEK 293 cells stably expressing human 5-HT7B (h5-HT7b) receptors were grown in Dulbecco's Modified Eagle's Medium (DMEM; Gibco) without sodium pyruvate and containing 4.5 g/L glucose, L-glutamine/penicillin-streptomycin (Gemini), 10% fetal bovine serum and 250 mg/l of the antibiotic, G418 (Geneticin) as previously described (Jasper, J. R., Kosaka, A., To, Z. P., Chang, D. J. and Eglen, R. M. (1997) Cloning, expression and pharmacology of a truncated splice variant of the human 5-ht7 receptor (h5-ht7b). Br. J. Pharmacol. 122(1):126-132.). Cell pellets were homogenized in approximately 50 mL of homogenization buffer (buffer A) containing: 50 mM Tris (pH 7.4), 2 mM EGTA, 0.32 M sucrose, 10 μM PMSF, 1 μg/mL leupeptin, 5 μg/mL Pepstatin A, and 5 μg/mL aprotinin using an UltraTurax homogenizer (Tekmar Company, Cincinnati, Ohio) at 80% maximum setting three times for 10 sec. Cell pellets were centrifuged at 4° C. at 1,500×g for 10 min in a Beckman GS-6R centrifuge. Pellets were resuspended in buffer A, homogenized and centrifuged as described above. Pooled supernatants were transferred to centrifuge bottles and centrifuged at 4° C. at 20,000×g for 30 min in a Beckman J2-HS centrifuge. Cell pellets were resuspended in buffer A and were centrifuged at 4° C. at 20,000×g for 30 min. Cell pellets were resuspended in buffer A and stored at −70° C. in aliquots of 2.5 mg/mL total membrane protein. Total membrane protein was assessed utilizing a BCA kit (Pierce; Rockford, Ill.). Membranes containing human 5-HT1a or 5HT2a receptors expressed in CHO K1 cells were prepared as described above.
(§2) Radioligand Binding Assays: For 5-HT7 saturation binding experiments, HEK-293 cell membranes expressing h5-HT7 receptors (5-10 μg membrane protein/well) were incubated in duplicate with [^3H]5-CT (approximately 0.2 nM) in binding assay buffer containing: 50 mM HEPES (pH 7.4), 0.5 mM EDTA, 10 mM MgCl2, 10 μM pargyline to inhibit monoamine oxidase activity, and 0.1% sodium ascorbate, in a final volume of 200 μL in 96-well polypropylene plates for 2 hours at 37° C. Nonspecific binding was determined by incubating membranes with 1 μM 5-HT. All radioligand binding assays were stopped by rapid filtration onto 96-well GF/C filter plates (Packard) soaked in 0.1% polyethylenimine. Filters were washed three times with ice-cold phosphate-buffered saline (PBS) wash buffer containing 50 mM NaPO4 (pH 7.4), 0.9% NaCl, 2 mM MgCl2 and 0.02% NaN3. The filters were then counted using liquid scintillation in a Packard Topcount scintillation counter.
(§3) Data Analysis: Radioligand binding experiments were analyzed with Prism™ (Graphpad, San Diego, Calif.), a computer graphics and statistics program. IC50 values and Hill slopes for compounds were generated by nonlinear regression using Prism™. Values for Ki calculated from IC50 values by the Cheng and Prussoff equation (Cheng, Y. and Prusoff, W. H., (1973), “Relationship between the inhibition constant (Ki) and the concentration of inhibitor which causes 50 per cent inhibition (I50) of an enzymatic reaction.” Biochemical Pharmacol. 22:3099-3108).

[3] = target: T4, human 5-HT7B (h5-HT7b) receptors (Homo sapiens, UniProt P34969); experiment: Competition radioligand binding, h5-HT7b
T4 construct: expressed in transfected cells
Text: The compounds of the invention interact with 5-HT receptors and show selectivity for 5-HT receptors. The 5-HT receptor binding properties of the compounds are identified by competitive radioligand binding assays wherein membranes prepared from transfected cells expressing the 5-HT receptor subtype of interest. “Binding constants” refers herein to Ki values measured by inhibition of the binding of radiolabelled ligands that are selective for the 5-HT receptor type being studied. For 5-HT7 receptors, Ki values are determined by measuring the inhibition of 5-carboxamidotryptamine (5-CT) binding, wherein 5-HT7 receptors were incubated with the radiolabelled high affinity ligand, 5-carboxamidotryptamine ([^3H]5-CT), in the presence and absence of the compounds of the invention, at varying concentrations. The compounds of the invention have high binding affinity for serotonin receptors as measured by dissociation constant Ki. […] “Selectivity” for receptor type, in the context of this invention, refers to the ratio of binding constants for the two receptor types being compared. […] The compounds of the present invention preferably show selectivity for 5-HT7 receptors over other serotonin receptor subtypes of greater than about 100. The compounds of the present invention also preferably show selectivity for 5-HT7 receptors over other receptor types, such as dopamine D2, of greater than about 100.
as §1
as §2, with “counter. […]” for “counter.”

human 5HT2a receptors = target: T5, human 5HT2a receptors (Homo sapiens, UniProt P28223); experiment: Competition radioligand binding, 5-HT2A
T5 construct: expressed in transfected cells; host or cells: CHO K1 cells
Procedure: as §1, §2, §3

[4] = [3H]Spiperone, membranes of A9 L cells, read-out: Ki D2
[5] = [3H]LSD, membranes of HEK-293 cells, read-out: Ki 5-HT6
[6] = [3H]5-CT, membranes of CHO K1 cells, read-out: Ki 5-HT1A
[7] = [3H]5-CT, membranes of HEK 293 cells, read-out: Ki 5-HT7
[8] = [3H]Ketanserin, membranes of CHO K1 cells, read-out: Ki 5-HT2A

T1 sequence (P14416 1-414 isoform P14416-2): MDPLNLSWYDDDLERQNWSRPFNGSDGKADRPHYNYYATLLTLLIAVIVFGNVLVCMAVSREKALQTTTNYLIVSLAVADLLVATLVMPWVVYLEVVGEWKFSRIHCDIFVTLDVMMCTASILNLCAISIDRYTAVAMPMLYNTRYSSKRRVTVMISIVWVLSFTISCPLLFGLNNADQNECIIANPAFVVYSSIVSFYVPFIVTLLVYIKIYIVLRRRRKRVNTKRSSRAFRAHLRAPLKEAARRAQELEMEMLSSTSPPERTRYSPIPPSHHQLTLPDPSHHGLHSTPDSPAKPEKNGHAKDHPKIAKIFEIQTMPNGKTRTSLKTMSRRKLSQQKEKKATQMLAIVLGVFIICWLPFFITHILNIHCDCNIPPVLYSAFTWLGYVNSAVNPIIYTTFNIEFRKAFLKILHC
T4 sequence (P34969 1-432 limits assumed): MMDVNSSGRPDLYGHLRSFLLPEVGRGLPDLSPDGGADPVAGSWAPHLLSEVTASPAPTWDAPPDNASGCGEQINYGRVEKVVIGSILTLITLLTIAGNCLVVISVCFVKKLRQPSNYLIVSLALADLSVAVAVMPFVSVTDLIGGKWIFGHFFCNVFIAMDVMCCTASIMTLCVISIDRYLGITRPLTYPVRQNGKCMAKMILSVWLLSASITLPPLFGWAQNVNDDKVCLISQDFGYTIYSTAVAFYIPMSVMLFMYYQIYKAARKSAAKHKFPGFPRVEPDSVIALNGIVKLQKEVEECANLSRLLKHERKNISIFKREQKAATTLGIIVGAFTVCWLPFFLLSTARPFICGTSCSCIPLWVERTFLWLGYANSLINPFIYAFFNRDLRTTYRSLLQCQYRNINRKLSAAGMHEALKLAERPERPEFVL
T2 sequence (P50406 whole entry): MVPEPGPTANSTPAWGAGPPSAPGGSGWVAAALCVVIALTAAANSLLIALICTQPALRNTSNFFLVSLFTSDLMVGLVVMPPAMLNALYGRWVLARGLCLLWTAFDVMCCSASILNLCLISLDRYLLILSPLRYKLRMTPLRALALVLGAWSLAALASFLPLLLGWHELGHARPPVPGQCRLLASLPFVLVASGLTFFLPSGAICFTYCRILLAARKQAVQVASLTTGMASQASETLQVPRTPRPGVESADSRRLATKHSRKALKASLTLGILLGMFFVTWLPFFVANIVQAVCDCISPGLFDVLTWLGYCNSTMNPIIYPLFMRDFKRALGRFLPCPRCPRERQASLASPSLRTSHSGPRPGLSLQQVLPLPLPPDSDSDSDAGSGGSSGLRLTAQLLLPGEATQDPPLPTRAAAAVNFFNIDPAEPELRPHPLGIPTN
T5 sequence (P28223 whole entry): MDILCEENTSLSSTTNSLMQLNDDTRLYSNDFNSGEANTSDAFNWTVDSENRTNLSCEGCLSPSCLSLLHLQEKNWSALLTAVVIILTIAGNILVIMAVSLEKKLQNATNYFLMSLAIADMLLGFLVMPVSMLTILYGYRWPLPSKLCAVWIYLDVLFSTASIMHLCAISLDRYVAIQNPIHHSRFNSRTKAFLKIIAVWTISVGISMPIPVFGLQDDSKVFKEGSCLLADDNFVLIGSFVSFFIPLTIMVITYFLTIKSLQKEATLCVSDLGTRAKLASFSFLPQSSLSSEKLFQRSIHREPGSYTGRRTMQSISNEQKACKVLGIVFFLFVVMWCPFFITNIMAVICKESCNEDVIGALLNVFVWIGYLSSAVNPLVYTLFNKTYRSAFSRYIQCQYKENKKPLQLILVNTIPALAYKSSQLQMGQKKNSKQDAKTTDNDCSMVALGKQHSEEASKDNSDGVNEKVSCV

| SMILES | Ki [1, 4] [nM] | Ki [2, 5] [nM] | Ki (human 5-HT1a receptors; [6]) [nM] | Ki [3, 7] [nM] | Ki (human 5HT2a receptors; [8]) [nM] | Ki [1] [nM] | Ki [2] [nM] | Ki (human 5-HT1a receptors) [nM] | Ki [3] [nM] | Ki (human 5HT2a receptors) [nM] |
| --- | --- | --- | --- | --- | --- | --- | --- | --- | --- | --- |
| CNC(=O)NC(=N)NCc1ccccc1Oc1ccccc1Cl [Example 86, 1-(2-Chlorophenoxy)-2-{[(imino{[(methylamino)carbonyl]amino}methyl)amino]methyl}benzene] | > 2500 | 580 | 920 | 6.3 | 290 | – | – | – | – | – |
| N=C(NCc1c(Cl)cccc1Oc1ccccc1)NC(=O)N1CCC(Nc2ccccc2)CC1 [Example 80, N-[(4-Anilino-1-piperidinyl)carbonyl]-N′-(2-chloro-6-phenoxybenzyl)guanidine] | – | – | – | – | – | > 2500 | 2300 | 3650 | 41 | 930 |
| N=C(NCc1cccc2ccccc12)NC(=O)N[C@H](CO)c1ccccc1 [Example 15, 1-({[[({[(1S)-2-Hydroxy-1-phenylethyl]amino}carbonyl)amino](imino)methyl]amino}methyl)naphthalene] | 290 | 170 | – | 2.6 | 0.4 | – | – | – | – | – |
| N=C(NCc1cccc2ccccc12)NC(=O)NCC1CCN(Cc2cccc3ccccc23)CC1 [Example 69, 4-({[({Imino[(1-naphthylmethyl)amino]methyl}amino)carbonyl]amino}methyl)-1-(1-naphthylmethyl)piperidine] | 720 | – | – | 27 | 11 | – | – | – | – | – |
| N#Cc1ccc(CN2CCC(CNC(=O)NC(=N)NCc3cccc4ccccc34)CC2)cc1 [Example 59, 1-(4-Cyanobenzyl)-4-({[({imino[(1-naphthylmethyl)amino]methyl}amino)carbonyl]amino}methyl)piperidine] | > 2500 | – | – | 85 | 2.6 | – | – | – | – | – |
| N=C(NCc1cccc2ccccc12)NC(=O)NCc1cccnc1 [Example 18, 3-({[({Imino[(1-naphthylmethyl)amino]methyl}amino)carbonyl]amino}methyl)pyridine] | 1030 | 350 | – | 17 | 0.43 | – | – | – | – | – |
| N=C(NCc1cccc2ccccc12)NC(=O)NCC1CCN(Cc2noc(-c3ccccc3)n2)CC1 [Example 64, 4-({[({Imino[(1-naphthylmethyl)amino]methyl}amino)carbonyl]amino}methyl)-1-[(5-phenyl-1,2,4-oxadiazol-3-yl)methyl]piperidine] | > 2500 | – | – | 91 | 4.2 | – | – | – | – | – |
| CCOc1ccccc1CNC(=N)NC(=O)NC [Example 84, 1-Ethoxy-2-{[(imino{[(methylamino)carbonyl]amino}methyl)amino]methyl}benzene] | > 2500 | 8660 | > 4000 | – | 400 | – | – | – | – | – |
| N=C(NCc1cccc2ccccc12)NC(=O)N[C@@H](CO)c1ccccc1 [Example 19, 1-({[[({[(1R)-2-Hydroxy-1-phenylethyl]amino}carbonyl)amino](imino)methyl]amino}methyl)naphthalene] | 200 | 930 | – | 110 | – | – | – | – | – | – |
| CC(C)(CO)CNC(=O)NC(=N)NCc1cccc2ccccc12 [Example 48, 1-({[({[(3-Hydroxy-2,2-dimethylpropyl)amino]carbonyl}amino)(imino)methyl]amino}methyl)naphthalene] | 1700 | 2620 | – | 9.8 | – | – | – | – | – | – |
| N=C(NCCc1ccccc1)NC(=O)N1CCN(Cc2ccccc2)CC1 [Example 61, N-[(4-Benzyl-1-piperazinyl)carbonyl]-N′-phenethylguanidine] | > 2500 | – | 930 | 490 | 1800 | – | – | – | – | – |
| N=C(NCc1cccc2ccccc12)NC(=O)Nc1cccc(C(N)=O)c1 [Example 27, 3-{[({Imino[(1-naphthylmethyl)amino]methyl}amino)carbonyl]amino}benzamide] | > 2500 | 79 | – | 18 | – | – | – | – | – | – |
| N=C(NCc1cccc2ccccc12)NC(=O)NC1CCCCC1O (centres unmarked) [Example 14, 1-({[({[(2-Hydroxycyclohexyl)amino]carbonyl}amino)(imino)methyl]amino}methyl)naphthalene] | 460 | 1250 | – | 11 | – | – | – | – | – | – |
| N=C(NCc1cccc2ccccc12)NC(=O)NCCCn1ccnc1 [Example 11] | 920 | 910 | – | 25 | – | – | – | – | – | – |
| Cc1cc(C)cc(CN2CCC(CNC(=O)NC(=N)NCc3cccc4ccccc34)CC2)c1 [Example 62, 1-(3,5-Dimethylbenzyl)4-({[({imino[(1-naphthylmethyl)amino]methyl}amino)carbonyl]amino}methyl)piperidine] | 490 | – | – | 22 | 9.8 | – | – | – | – | – |
| N=C(NCc1cccc2ccccc12)NC(=O)NCC1CCN(Cc2cccc(C(F)(F)F)c2)CC1 [Example 57, 4-({[({Imino[(1-naphthylmethyl)amino]methyl}amino)carbonyl]amino}methyl)-1-[3-(trifluoromethyl)benzyl]piperidine] | 1570 | – | – | 59 | 130 | – | – | – | – | – |
